Among the data in patent US7648979B2, “5-amido-(1H-indol-2-yl)-piperazin-1-yl-methanone derivatives” (Hoffmann-La Roche Inc., priority 2007, dated 2010) are Ki values, retold here.

Sequence of histamine 3 receptor (H3R) (Q9Y5N1 whole entry): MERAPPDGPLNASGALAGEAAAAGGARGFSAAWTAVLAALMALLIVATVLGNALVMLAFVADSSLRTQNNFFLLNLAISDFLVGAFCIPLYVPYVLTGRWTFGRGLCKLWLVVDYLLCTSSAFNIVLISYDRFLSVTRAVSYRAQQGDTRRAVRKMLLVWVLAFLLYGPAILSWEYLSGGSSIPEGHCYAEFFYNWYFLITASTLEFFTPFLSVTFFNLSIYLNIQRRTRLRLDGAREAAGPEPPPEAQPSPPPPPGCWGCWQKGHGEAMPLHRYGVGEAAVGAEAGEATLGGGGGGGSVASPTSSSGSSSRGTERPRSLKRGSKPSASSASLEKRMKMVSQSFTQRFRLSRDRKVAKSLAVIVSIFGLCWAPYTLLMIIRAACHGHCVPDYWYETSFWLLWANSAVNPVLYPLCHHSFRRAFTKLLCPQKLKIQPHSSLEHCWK

For the assay, the target named is histamine 3 receptor (H3R) (Homo sapiens, UniProt Q9Y5N1). The assay is described as follows: Binding Assay with 3H-(R)α-methylhistamine (competition binding, membranes of human H3R-CHO cell line). To be noted: competition with 3H(R)α-methylhistamine (1 nM), Ki calculated from IC50 by Cheng-Prusoff. Here is the method:
Binding Assay with ^3H-(R)α-methylhistamine
Saturation binding experiments were performed using HR3-CHO membranes prepared as described in Takahashi, K, Tokita, S., Kotani, H. (2003) J. Pharmacol. Exp. Therapeutics 307, 213-218.
An appropriate amount of membrane (60 to 80 μg protein/well) was incubated with increasing concentrations of ^3H(R)α-Methylhistamine di-hydrochloride (0.10 to 10 nM). Non specific binding was determined using a 200 fold excess of cold (R)α-Methylhistamine dihydrobromide (500 nM final concentration). The incubation was carried out at room temperature (in deep-well plates shaking for three hours). The final volume in each well was 250 μl. The incubation was followed by rapid filtration on GF/B filters (pre-soaked with 100 μl of 0.5% PEI in Tris 50 mM shaking at 200 rpm for two hours). The filtration was made using a cell-harvester and the filter plates were then washed five times with ice cold washing buffer containing 0.5 M NaCl. After harvesting, the plates were dried at 55° C. for 60 min, then we added scintillation fluid (Microscint 40, 40 microl in each well) and the amount of radioactivity on the filter was determined in Packard top-counter after shaking the plates for two hours at 200 rpm at room temperature.
Binding Buffer: 50 mM Tris-HCl pH 7.4 and 5 mM MgCl2×6H2O pH 7.4. Washing Buffer: 50 mM Tris-HCl pH 7.4 and 5 mM MgCl2×6H2O and 0.5 M NaCl pH 7.4.
Indirect measurement of affinity of H3R inverse agonists: twelve increasing concentrations (ranging from 10 μM to 0.3 nM) of the selected compounds were always tested in competition binding experiments using membrane of the human H3R—CHO cell line. […]
All compounds were tested at a single concentration in duplicate. […] Ki's were calculated from IC50 based on Cheng-Prusoff equation (Cheng, Y, Prusoff, W H (1973) Biochem Pharmacol 22, 3099-3108): Ki=IC50/[1+D/Kd] wherein D is the concentration of the radioligand and Kd is the binding constant for the radioligand binding to the receptor under the conditions used in the competition experiment.
As for `CC(C)N1CCN(C(=O)c2ccc3c(c2)cc(C(=O)N2CCN(C(=O)N4CCCCC4)CC2)n3-c2ccnc(Cl)c2)CC1` [Example 19, [1-(2-Chloro-pyridin-4-yl)-5-(4-isopropyl-piperazine-1-carbonyl)-1H-indol-2-yl]-[4-(piperidine-1-carbonyl)-piperazin-1-yl]-methanone], the inhibitory constant (Ki) (as a rule, the equilibrium dissociation constant of an inhibitor or competing ligand from its target) was 7.5 nM.
Next, `CC(C)N1CCN(C(=O)c2ccc3c(c2)cc(C(=O)N2CCN(S(C)(=O)=O)CC2)n3-c2ccnc(Cl)c2)CC1` [Example 7, [1-(2-Chloro-pyridin-4-yl)-5-(4-isopropyl-piperazine-1-carbonyl)-1H-indol-2-yl]-(4-methanesulfonyl-piperazin-1-yl)-methanone]: 11.7 nM; `CC(C)N1CCN(C(=O)c2ccc3c(c2)cc(C(=O)N2CCN(S(=O)(=O)c4ccccc4)CC2)n3-c2ccnc(Cl)c2)CC1` [Example 17, (4-Benzenesulfonyl-piperazin-1-yl)-[1-(2-chloro-pyridin-4-yl)-5-(4-isopropyl-piperazine-1-carbonyl)-1H-indol-2-yl]-methanone]: 5.7 nM.
